From PMC7522982, “PKIS deep dive yields a chemical starting point for dark kinases and a cell active BRSK2 inhibitor” (Scientific Reports, 2020) come the findings set out here.

Experiment in all cases: DiscoverX scanMAX competition binding assay
Common to all, as to set-up: purchased Eurofins DiscoverX (scanMAX) / Eurofins enzymatic assays

One assay has as its target MAP4K4/HGK (Homo sapiens, UniProt O95819). An excerpt: (§1) Based on its narrow profile when tested in the combined Nanosyn and TSA panels, GW296115 was included in the recently released Kinase Chemogenomic Set (KCGS)[15]. All of the data presented in the Introduction section was collected prior to the inclusion of GW296115 in KCGS and everything that follows has been subsequently generated. Since its inclusion in PKIS and more recently KCGS, we have carried out a broader round of screening at DiscoverX. This profiling data has not been previously released and is reported here for the first time. GW296115 was profiled against 403 wild type human kinases at 1 μM using the DiscoverX scanMAX screening platform, which employs an active site-directed competition binding assay to quantitatively measure interactions between test compounds and kinases, [16]. GW296115 inhibited 25 kinases > 90% at 1 μM, resulting in a selectivity index (S10) of 0.062 at 1 μM (Table S2, Fig. 1C)[17].
(§2) The scanMAX assays were performed at Eurofins DiscoverX Corporation as previously described.

For the next assay, the target named is STK17A/DRAK1 (Homo sapiens, UniProt Q9UEE5).
STK17A/DRAK1, sequence (Q9UEE5 whole entry): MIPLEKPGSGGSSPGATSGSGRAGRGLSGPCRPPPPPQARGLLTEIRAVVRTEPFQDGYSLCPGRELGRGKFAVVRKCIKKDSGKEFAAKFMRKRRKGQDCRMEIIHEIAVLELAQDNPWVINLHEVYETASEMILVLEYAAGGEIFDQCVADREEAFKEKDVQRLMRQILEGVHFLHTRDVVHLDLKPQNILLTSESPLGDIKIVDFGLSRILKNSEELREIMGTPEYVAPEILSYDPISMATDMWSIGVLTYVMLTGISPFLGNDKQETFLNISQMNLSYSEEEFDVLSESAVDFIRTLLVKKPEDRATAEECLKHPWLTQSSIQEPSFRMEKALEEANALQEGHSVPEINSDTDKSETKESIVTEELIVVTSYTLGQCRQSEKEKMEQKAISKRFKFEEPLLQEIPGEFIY
Excerpt: as §1, §2

A further assay concerns the target CHEK2 (Homo sapiens, UniProt O96017).
Excerpt: as §1, §2

The next assay concerns the target PLK4 (Homo sapiens, UniProt O00444).
Excerpt: as §1, §2

A further assay addresses TNIK (Homo sapiens, UniProt Q9UKE5).
Excerpt: as §1, §2

The next assay concerns the target RPS6KA6/RSK4 (Homo sapiens, UniProt Q9UK32).
Excerpt: as §1, §2

The next assay concerns the target T1, STK17B/DRAK2 (Homo sapiens, UniProt O94768).
T1 sequence (O94768 1-372): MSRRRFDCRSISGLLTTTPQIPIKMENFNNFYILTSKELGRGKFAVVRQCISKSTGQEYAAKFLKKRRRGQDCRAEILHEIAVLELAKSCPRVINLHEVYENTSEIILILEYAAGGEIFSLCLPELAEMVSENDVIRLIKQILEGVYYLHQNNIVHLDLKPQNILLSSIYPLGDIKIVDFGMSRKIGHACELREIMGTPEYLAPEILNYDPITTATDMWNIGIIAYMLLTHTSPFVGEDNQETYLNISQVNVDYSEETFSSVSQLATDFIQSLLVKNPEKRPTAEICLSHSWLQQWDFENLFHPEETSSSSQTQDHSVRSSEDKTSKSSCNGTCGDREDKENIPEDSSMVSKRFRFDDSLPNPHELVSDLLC
Excerpt: as §1, §2

In a further assay the target is SGK1/SGK (Homo sapiens, UniProt O00141).
Excerpt: as §1, §2

The next assay concerns the target PDGFRA (Homo sapiens, UniProt P16234).
Excerpt: as §1, §2

The next assay concerns the target MYLK/MLCK/smMLCK (Homo sapiens, UniProt Q15746).
Excerpt: as §1, §2

For a further assay, the target named is MAP3K11/MLK3 (Homo sapiens, UniProt Q16584).
Excerpt: as §1, §2

Another assay has as its target STK33 (Homo sapiens, UniProt Q9BYT3).
Excerpt: as §1, §2

Another assay has as its target DAPK3/ZIPK (Homo sapiens, UniProt O43293).
Excerpt: as §1, §2

The target of the next assay is AURKB (Homo sapiens, UniProt Q96GD4).
Excerpt: as §1, §2

The next assay concerns the target LRRK2 (Homo sapiens, UniProt Q5S007).
Excerpt: as §1, §2

The target of another assay is AURKC (Homo sapiens, UniProt Q9UQB9).
AURKC, sequence (Q9UQB9 whole entry): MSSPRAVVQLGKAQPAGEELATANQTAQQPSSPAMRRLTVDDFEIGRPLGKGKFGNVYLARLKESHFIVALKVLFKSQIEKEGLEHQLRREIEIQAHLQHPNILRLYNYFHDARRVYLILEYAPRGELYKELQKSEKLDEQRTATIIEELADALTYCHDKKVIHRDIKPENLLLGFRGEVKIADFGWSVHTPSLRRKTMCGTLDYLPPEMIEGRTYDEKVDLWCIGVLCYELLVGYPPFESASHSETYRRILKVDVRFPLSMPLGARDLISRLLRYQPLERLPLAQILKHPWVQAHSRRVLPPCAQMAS
Excerpt: as §1, §2

Another assay addresses DAPK2 (Homo sapiens, UniProt Q9UIK4).
Excerpt: as §1, §2

The next assay addresses FLT3 (Homo sapiens, UniProt P36888).
Excerpt: as §1, §2

In another assay the target is MINK1/MINK (Homo sapiens, UniProt Q8N4C8).
MINK1/MINK, sequence (Q8N4C8 whole entry): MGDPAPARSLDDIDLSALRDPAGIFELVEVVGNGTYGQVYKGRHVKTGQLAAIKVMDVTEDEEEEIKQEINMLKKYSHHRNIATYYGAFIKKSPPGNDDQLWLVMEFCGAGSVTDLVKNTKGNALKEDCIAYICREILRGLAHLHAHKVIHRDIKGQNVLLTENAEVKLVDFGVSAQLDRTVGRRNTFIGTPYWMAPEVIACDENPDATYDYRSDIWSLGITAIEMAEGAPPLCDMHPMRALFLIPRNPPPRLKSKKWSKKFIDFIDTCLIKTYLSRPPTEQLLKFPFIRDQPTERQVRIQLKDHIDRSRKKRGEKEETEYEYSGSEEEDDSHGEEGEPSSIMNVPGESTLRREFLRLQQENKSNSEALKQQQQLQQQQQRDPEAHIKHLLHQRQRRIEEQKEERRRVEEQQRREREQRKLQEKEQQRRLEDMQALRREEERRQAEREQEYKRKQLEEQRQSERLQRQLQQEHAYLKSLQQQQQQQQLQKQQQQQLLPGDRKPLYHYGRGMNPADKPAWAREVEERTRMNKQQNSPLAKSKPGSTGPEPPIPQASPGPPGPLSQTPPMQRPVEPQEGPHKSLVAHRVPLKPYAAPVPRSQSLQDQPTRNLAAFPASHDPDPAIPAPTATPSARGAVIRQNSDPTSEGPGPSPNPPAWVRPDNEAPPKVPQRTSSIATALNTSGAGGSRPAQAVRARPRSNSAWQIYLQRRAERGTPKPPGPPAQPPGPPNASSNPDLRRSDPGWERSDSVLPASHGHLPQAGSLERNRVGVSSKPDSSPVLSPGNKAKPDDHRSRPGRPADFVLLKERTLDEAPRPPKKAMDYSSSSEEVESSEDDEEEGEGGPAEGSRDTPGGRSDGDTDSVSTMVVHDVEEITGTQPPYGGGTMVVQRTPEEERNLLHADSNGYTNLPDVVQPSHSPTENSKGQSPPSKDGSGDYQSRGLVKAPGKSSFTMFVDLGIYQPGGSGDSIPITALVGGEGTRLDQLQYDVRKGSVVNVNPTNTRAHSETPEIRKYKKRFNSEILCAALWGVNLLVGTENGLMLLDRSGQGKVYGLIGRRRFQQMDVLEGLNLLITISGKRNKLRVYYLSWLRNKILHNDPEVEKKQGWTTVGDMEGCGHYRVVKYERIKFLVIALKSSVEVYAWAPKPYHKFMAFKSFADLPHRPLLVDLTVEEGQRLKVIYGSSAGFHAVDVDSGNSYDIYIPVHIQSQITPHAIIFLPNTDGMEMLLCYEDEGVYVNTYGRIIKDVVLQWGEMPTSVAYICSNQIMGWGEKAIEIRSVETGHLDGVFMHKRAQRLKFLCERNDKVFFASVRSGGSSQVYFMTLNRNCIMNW
Excerpt: as §1, §2

The next assay has as its target PRKG2/PKG2 (Homo sapiens, UniProt Q13237).
Excerpt: as §1, §2

DAPK3/ZIPK, sequence (O43293 whole entry): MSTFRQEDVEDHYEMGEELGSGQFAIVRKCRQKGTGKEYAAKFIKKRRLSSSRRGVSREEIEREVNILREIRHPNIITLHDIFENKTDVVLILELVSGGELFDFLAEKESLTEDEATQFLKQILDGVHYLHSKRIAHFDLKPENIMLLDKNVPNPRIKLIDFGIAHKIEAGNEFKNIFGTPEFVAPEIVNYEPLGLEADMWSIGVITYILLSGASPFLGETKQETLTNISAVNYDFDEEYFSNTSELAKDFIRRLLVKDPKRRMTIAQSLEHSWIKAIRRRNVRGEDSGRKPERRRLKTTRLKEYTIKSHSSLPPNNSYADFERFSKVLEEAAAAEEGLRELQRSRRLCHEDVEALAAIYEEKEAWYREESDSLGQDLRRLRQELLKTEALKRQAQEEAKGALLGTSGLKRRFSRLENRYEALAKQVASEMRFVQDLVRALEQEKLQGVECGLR
CHEK2, sequence (O96017 whole entry): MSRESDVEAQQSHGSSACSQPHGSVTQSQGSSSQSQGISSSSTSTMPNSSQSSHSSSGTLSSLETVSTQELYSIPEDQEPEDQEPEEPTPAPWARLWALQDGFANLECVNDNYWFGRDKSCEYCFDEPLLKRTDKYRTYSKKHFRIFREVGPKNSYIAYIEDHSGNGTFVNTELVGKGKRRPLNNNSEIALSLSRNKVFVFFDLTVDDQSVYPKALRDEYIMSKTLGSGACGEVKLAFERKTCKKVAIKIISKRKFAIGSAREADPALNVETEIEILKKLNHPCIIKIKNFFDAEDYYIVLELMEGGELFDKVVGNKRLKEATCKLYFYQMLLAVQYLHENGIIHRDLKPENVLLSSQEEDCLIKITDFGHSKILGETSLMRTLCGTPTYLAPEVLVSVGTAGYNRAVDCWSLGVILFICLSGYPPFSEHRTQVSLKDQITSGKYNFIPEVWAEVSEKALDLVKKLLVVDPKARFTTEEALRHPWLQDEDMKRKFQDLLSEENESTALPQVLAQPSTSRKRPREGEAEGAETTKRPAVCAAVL
PRKG2/PKG2, sequence (Q13237 whole entry): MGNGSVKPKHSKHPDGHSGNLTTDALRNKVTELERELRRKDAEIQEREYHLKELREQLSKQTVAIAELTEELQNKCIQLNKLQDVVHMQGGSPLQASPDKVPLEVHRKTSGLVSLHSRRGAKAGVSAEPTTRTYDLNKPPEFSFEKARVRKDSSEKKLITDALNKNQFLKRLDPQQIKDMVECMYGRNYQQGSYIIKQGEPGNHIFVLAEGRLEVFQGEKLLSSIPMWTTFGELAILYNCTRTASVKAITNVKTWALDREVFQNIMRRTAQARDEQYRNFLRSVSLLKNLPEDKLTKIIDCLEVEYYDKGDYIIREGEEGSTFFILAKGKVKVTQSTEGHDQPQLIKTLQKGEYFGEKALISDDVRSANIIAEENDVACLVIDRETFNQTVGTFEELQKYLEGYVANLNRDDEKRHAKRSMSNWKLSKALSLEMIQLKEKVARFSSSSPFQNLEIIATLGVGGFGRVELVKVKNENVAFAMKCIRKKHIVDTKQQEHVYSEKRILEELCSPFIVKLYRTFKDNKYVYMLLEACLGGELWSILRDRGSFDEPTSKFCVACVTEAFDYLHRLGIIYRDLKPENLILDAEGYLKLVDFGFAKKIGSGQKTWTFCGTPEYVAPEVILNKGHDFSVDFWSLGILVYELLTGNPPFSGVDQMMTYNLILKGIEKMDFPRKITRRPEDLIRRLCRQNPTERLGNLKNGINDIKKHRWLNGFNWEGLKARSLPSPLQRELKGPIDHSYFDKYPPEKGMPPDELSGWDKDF
MAP4K4/HGK, sequence (O95819 whole entry): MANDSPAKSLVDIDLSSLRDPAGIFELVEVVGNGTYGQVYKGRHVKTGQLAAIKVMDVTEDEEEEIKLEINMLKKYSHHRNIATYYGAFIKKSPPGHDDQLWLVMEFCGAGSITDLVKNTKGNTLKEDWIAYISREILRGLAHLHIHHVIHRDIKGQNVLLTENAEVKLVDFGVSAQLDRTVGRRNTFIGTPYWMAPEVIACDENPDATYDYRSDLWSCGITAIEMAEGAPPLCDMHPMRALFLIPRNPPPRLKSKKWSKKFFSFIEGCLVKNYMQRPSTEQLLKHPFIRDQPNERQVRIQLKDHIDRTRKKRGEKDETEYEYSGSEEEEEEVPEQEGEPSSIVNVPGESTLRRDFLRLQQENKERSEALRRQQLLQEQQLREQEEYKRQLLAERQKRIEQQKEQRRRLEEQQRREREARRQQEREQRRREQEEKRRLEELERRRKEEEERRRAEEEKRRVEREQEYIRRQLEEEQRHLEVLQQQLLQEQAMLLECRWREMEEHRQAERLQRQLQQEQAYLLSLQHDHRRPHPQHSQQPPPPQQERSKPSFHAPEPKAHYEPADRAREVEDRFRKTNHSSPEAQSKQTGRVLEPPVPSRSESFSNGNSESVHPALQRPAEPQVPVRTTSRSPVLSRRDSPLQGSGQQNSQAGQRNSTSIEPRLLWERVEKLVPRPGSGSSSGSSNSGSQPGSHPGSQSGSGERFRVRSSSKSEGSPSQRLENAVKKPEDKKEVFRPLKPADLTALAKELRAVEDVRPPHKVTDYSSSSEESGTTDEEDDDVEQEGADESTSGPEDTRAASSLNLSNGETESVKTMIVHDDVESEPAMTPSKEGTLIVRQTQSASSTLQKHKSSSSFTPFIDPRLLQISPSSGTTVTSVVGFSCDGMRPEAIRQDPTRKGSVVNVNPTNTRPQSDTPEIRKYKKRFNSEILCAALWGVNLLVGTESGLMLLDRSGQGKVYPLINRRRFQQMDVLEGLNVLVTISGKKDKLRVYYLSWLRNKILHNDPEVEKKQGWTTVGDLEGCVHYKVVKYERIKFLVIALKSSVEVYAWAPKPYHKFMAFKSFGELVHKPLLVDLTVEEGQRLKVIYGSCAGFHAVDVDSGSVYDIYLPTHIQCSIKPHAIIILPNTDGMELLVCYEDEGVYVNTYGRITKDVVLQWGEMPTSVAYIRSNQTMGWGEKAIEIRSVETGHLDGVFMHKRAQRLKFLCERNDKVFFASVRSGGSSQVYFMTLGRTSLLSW

With `COc1ccc2[nH]c3c4[nH]c5ccc(OC)cc5c4c4c(c3c2c1)C(=O)NC4=O` [GW296115], the inhibition at 1 µM at MAP4K4/HGK is 91.4%; at STK17A/DRAK1 it was 99.6%; on CHEK2 it was 92.5%; on PLK4, 99.5%; on TNIK, 97.7%; on RPS6KA6/RSK4 it was 94.7%. Moreover, the inhibition at 1 µM came out at 100% at STK17B/DRAK2; 91.2% on SGK1/SGK; 91.4% on PDGFRA; 95.4% on MYLK/MLCK/smMLCK; 92.4% on MAP3K11/MLK3; 92% on STK33. In addition, the inhibition at 1 µM stood at 96.9% at DAPK3/ZIPK; 90% at AURKB; 100% on LRRK2; 94.1% on AURKC; 96.7% on DAPK2; 91.5% at FLT3. The inhibition at 1 µM is 96% on MINK1/MINK and 98.8% on PRKG2/PKG2.

Broadly, the inhibition is the percentage by which the read-out fell short of the control.
